# From patent US4497803A, “Inclusion compound of lankacidin-group antibiotic and use thereof” (priority 1982, dated 1985)
# Read-outs that look alike come from different tables or passages of the source.
# Experiments:
# [1] = Solubility in β-CD solution, shaken 16 hours (Example 3); format: physicochemical; conditions: for Solubility in β-CD solution as function of β-CD concentration: from the vicinity of 10^-3 Mol/l of β-CD
# Description: (§1) Powdery lankacidin C was added to an aqueous solution of cyclodextrin (hereinafter referred to as "CD") to have 4 mg/ml of the lankacidin C contained. After the mixture was stirred with a mixer, it was shaken at 5° C. for 2 hours, and passed through filter paper. The absorbancy of the filtrate was measured at 227-229 nm to determine concentration of the lankacidin C.
# The solubilities of lankacidin A, lankacidin C and lankacidinol in a β-CD solution were measured in the same manner as that of Example 1 except that the shaking was continued for 16 hours.
# [2] = Solubility of inclusion compound in water; format: physicochemical
# Description: The lankacidin-group is added to each of solutions containing various amounts of cyclodextrin. The minimum concentration of cyclodextrin which dissolves the maximum amount of the lankacidin-group compound and practical concentrations thereof are determined on the basis of amounts of the lankacidin-group compound dissolved in the cyclodextrin solutions. Then, the molar ratio of cyclodextrin to lankacidin-group compound is calculated by the following equation:
# Molar ratio=[Molarity of cyclodextrin]:[(Saturation molarity of lankacidin-group compound in a certain concentration of cyclodextrin-solution)-(saturation molarity of lankacidin-group compound in an aqueous solution)].
# Moreover, a large amount of the present inclusion compound is dissolved in water and it is kept stably therein. Solubility of the inclusion compound in water is greater than that of landacidin-group compounds in water, when the amount of the inclusion compound dissolved is calculated in terms of lankacidin-group compound, and than saturation concentration of cyclodextrin in water so far as cyclodextrin contained in the inclusion compound is concerned (Table 2).
# (1) Solubility of lankacidingroup in water.
# (2) Solubility of lankacidingroup in M/100 cyclodextrin solution.
# (3) Concentration of cyclodextrin of (2).
# (4) Solubility (maximum) of the present inclusion compound (calculated in
# terms of lankacidingroup contained) in water.
# (5) Concentration of cyclodextrin contained in the inclusion compound of […]
# [3] = Solubility / suspension in physiological saline for injection (Test Example); format: physicochemical
# Description: 10 mg (titer) calculated in terms of lankacidin A is soluble in 1 ml each of physiological saline solution. As a control, lankacidin A itself used in Example 5 was employed.
# 5.2 ml (titer: 10 mg/kg) of this suspension was administered to pig No. 1 and 4.9 ml (titer: 7 mg/kg) was administered to pig No. 2 by injecting it into root portion of ear once a day for two days.
# Thus, administration was impossible.
# St. aureus 209P = experiment: Stability of inclusion compound of lankacidin-group (24° C., for 6 days): antibacterial activity by paper disk assay; format: cell-based; conditions: methanol
# Description: The inclusion compound of the present invention is stable in an aqueous solution, although it splits into lankacidin-group moiety and cyclodextrins moiety, when it is in the form of solution or powder, by contacting it with organic solvents (e.g., ethyl acetate, methyl isobutyl ketone) or various carriers (e.g., silica gel, high-porous resins). […] In comparing the antibacterial activity, concentrations of the inclusion compound are calculated in terms of lankacidin-group compound from which the inclusion compound is prepared.
# Stability of inclusion compound of lankacidin-group
# *1 Paper disk assay using Trypticase soy agar (Baltimore Biologicals Ltd.
# U.S.A.) as test culture media.
# *2 1000 μg/ml, Lankacidingroup is stable in methanol.
# *3 Aqueous solution of the inclusion compound with cyclodextrin (1000
# μg/ml calculated in terms of lankacidingroup)
# [4] = Stability of lankacidin A and C in methanolic aqueous solutions, 40° C., HPLC (Example 7); format: physicochemical; conditions: for Residual rate / remaining at 4 h / remaining at 6 h: 10 μg/ml, 40° C.; for Residual rate: 0 hr; for Effect of β-cyclodextrin on stability in methanolic aqueous solutions: 1000 times β-CD by weight added; for remaining at 4 h / remaining at 6 h: read-out: Residual rate
# Description: 5 ml each of a methanolic solution containing lankacidin A or C in a concentration of 100 μg per ml was added to 45 ml each of pH 4.5 and pH 7.0 buffer solutions and a buffer solution containing β-cyclodextrin.
# Each mixture was placed in a glass vessel, and then sealed. While the mixtures were kept in the vessel at 40° C., 5 ml each was taken out from time to time and extracted with ethyl acetate. The organic layers were dried over anhydrous sodium sulfate and the concentrations of the lankacidin A or C was measured with high-performance liquid chromatography (HPLC).
# Apparatus: Water Associates ALC/GPC 240 (Waters Associates Inc., U.S.A.)
# Column: μPoracil 30 cm×3.9 mm.phi.
# Eluent: n-Hexane: isopropyl alcohol: acetic acid (75:25:0.2).
# [5] = Solubility of lankacidin C in aqueous cyclodextrin solution, shaken at 5° C. for 2 hours (Example 1); format: physicochemical
# Description: as §1
# [6] = aqueous β-cd solution, β-CD 2 × 10^-3 Mol/l
# [7] = aqueous β-cd solution, β-CD 2 × 10^-4 Mol/l
# [8] = aqueous β-cd solution, β-CD 5 × 10^-3 Mol/l
# [9] = aqueous β-cd solution, β-CD 5 × 10^-4 Mol/l
# [10] = aqueous β-cd solution, β-CD 10^-2 Mol/l
# [11] = aqueous β-cd solution, β-CD 10^-3 Mol/l
# [12] = aqueous β-cd solution, β-CD 10^-4 Mol/l
# [13] = m/100 cyclodextrin solution, M/100 cyclodextrin, (3) cyclodextrin 11.3 mg/ml, read-out: (2) Solubility of lankacidin-group in M/100 cyclodextrin solution
# [14] = water, read-out: (1) Solubility of lankacidin-group in water
# [15] = pH 7.0, β-cyclodextrin 10 mg/ml
# [16] = methanolic aqueous buffer, pH 7.0, no β-cyclodextrin
# [17] = methanolic buffer with β-cyclodextrin, pH 4.5, β-cyclodextrin 10 mg/ml
# [18] = methanolic buffer with β-cyclodextrin, pH 7.0, β-cyclodextrin 10 mg/ml
SMILES,"solubility at 16 h [1, 6]","solubility at 16 h [1, 7]","solubility at 16 h [1, 8]","solubility at 16 h [1, 9]","solubility at 16 h [1, 10]","solubility at 16 h [1, 11]","solubility at 16 h [1, 12]",Solubility in β-CD solution as function of β-CD concentration [1],"solubility at 16 h ([1]; water, β-CD 0 Mol/l)","solubility [2, 13]","solubility [2, 14]","Residual rate ([4]; pH 7.0, no β-cyclodextrin)","Residual rate [4, 15]",Effect of β-cyclodextrin on stability in methanolic aqueous solutions [4],"remaining at 6 h [4, 18]",further results
"CC(=O)OC1C=CC(C)=CCC(O)C=CC(C)=CC(NC(=O)C(C)=O)C2(C)C(=O)OC(C1)C(C)C2=O (centres unmarked) [Lankacidin A, lankacidin A]",632 µg/mL,201 µg/mL,1370 µg/mL,265 µg/mL,2690 µg/mL,400 µg/mL,195 µg/mL,increase in proportion to the concentration of β-CD,181 µg/mL,2690 µg/mL,181 µg/mL,100%,100%,increased stabilities,48.1%,"Preparation of injection/suspension in sterilized physiological saline solution [3]: suspension could not be obtained due to separation of the drug; Antibacterial activity, inhibition diameter (St. aureus 209P; 0 day, 1000 μg/ml): 26.75 mm; Antibacterial activity, inhibition diameter (St. aureus 209P; 3 days at 24° C., 1000 μg/ml): 27.0 mm; Antibacterial activity, inhibition diameter (St. aureus 209P; 6 days at 24° C., 1000 μg/ml): 23.25 mm; Residual rate ([4]; pH 4.5, no β-cyclodextrin): 100%; Residual rate ([4]; pH 4.5, β-cyclodextrin 10 mg/ml): 100%; remaining at 4 h ([4]; methanolic aqueous buffer, pH 4.5, no β-cyclodextrin): 34.5%; remaining at 4 h [4, 16]: 17.4%; remaining at 4 h [4, 17]: 91.9%; remaining at 6 h [4, 17]: 85.7%; remaining at 4 h [4, 18]: 58.3%"
"CC(=O)C(=O)NC1C=C(C)C=CC(O)CC=C(C)C=CC(O)CC2OC(=O)C1(C)C(=O)C2C (centres unmarked) [Lankacidin C, lankacidin C]",934 µg/mL,304 µg/mL,1780 µg/mL,409 µg/mL,3350 µg/mL,566 µg/mL,262 µg/mL,increase in proportion to the concentration of β-CD,237 µg/mL,3540 µg/mL,268 µg/mL,100%,100%,increased stabilities,88.2%,"solubility ([1]; β-CD 10^-3 Mol/l, 960 min): 715 µg/mL; solubility at 2 h [5, 10]: 3730 µg/mL; solubility at 2 h [5, 11]: 650 µg/mL; solubility at 2 h [5, 12]: 280 µg/mL; solubility at 2 h ([5]; aqueous γ-cd solution, γ-CD 10^-2 Mol/l): 2390 µg/mL; solubility at 2 h ([5]; aqueous γ-cd solution, γ-CD 10^-3 Mol/l): 460 µg/mL; solubility at 2 h ([5]; aqueous γ-cd solution, γ-CD 10^-4 Mol/l): 260 µg/mL; solubility at 2 h ([5]; aqueous γ-cyclodextrin solution, γ-CD 10^-1 Mol/l): 3790 µg/mL; solubility at 2 h ([5]; water, β-CD, CD 0 Mol/l): 260 µg/mL; solubility at 2 h ([5]; water, γ-CD, CD 0 Mol/l): 260 µg/mL; Solubility in CD solution ([5]; β-CD and γ-CD solution): high solubility; Antibacterial activity, inhibition diameter (St. aureus 209P; 0 day, 100 μg/ml): 28.25 mm; Antibacterial activity, inhibition diameter (St. aureus 209P; 3 days at 24° C., 100 μg/ml): 29.5 mm; Antibacterial activity, inhibition diameter (St. aureus 209P; 6 days at 24° C., 100 μg/ml): 29.5 mm; remaining at 6 h [4, 16]: 43.7%"
